Experimental data from US20250032567A1, “PLANT-BASED SKIN PREPARATIONS AND USE THEREOF” (priority 2022, published 2025).

System: cannabis calli
Test: Elicitation of callus cultures on solid medium, cannabinoid content by HPLC
Format: cell-based, Cannabis sativa
Settings: elicitors compared for inducing secondary metabolites

Row | Compound | cannabinoid production (elicitor effect)
1 | NCCCC(=O)O [GABA] | positive results
2 | O=P(O)(O)CCCl [ethephon] | positive results
3 | CCCCCC(=O)O [hexanoic acid] | positive results
4 | CC/C=C\CC1C(=O)CCC1CC(=O)OC (stereo not shown) [methyl jasmonate] | positive results
5 | N[C@@H](Cc1ccccc1)C(=O)O [phenylalanine] | positive results
6 | O=C(O)c1ccccc1O [salicylic acid] | positive results
7 | N[C@@H](Cc1ccc(O)cc1)C(=O)O [tyrosine] | positive results
